Values of other authors as cited in patent US20050124598A1, “Antibiotic compounds” (priority 2001, published 2005).

Target: PBP2a (Staphylococcus aureus, UniProt P07944)
Settings: reported β-lactam inhibitors, literature values

Sequence of PBP2a (P07944 whole entry): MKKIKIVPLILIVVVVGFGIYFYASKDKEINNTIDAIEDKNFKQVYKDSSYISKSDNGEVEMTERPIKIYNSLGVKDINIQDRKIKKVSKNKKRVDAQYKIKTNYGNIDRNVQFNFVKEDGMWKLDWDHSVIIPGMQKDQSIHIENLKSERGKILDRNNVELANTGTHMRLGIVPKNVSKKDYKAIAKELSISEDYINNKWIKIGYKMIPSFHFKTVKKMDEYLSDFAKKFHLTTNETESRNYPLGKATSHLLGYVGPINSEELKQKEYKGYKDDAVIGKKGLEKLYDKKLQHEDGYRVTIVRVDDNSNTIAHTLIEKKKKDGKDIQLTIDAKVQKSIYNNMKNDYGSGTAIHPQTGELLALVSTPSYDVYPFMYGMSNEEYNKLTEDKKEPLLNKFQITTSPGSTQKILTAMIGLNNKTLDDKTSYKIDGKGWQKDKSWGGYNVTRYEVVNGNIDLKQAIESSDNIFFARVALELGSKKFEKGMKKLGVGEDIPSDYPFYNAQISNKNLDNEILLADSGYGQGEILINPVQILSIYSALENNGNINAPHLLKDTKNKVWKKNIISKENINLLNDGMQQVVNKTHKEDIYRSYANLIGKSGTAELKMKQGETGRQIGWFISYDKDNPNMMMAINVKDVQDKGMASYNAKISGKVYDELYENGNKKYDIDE

Row | SMILES | IC50 for PBP2a [µg/mL]
1 | NCCSCc1cnccc1SC1=C(C(=O)O)N2C(=O)[C@@H](NC(=O)/C(=N\O)c3nc(N)sc3Cl)[C@H]2SC1 [MC-02479] | 0.5
2 | NC(=O)C[n+]1ccc(S/C=C/C2=C(C(=O)[O-])N3C(=O)C(NC(=O)/C(=N\O)c4csc(N)n4)C3SC2)cc1 (centres unmarked) [TOC-39] | 0.58
